Reference: ChEMBL document CHEMBL4308841, “Synthesis, in vitro antiproliferative activity, and kinase inhibitory effects of pyrazole-containing diarylureas and diarylamides” (Eur J Med Chem, 2018)

Each compound was assayed on MDA-MB-435 (assay: Growth inhibition of human MDA-MB-435 cells incubated for 48 hrs by sulforhodamine B assay). Settings: MDA-MB-435, 48 h, read-out: LC50.
Assay type: functional, cell-based

SMILES	LC50
O=C(Nc1cccc(-n2cc(-c3ccncc3)c(-c3cc(O)cc(Cl)c3)n2)c1)c1cc(C(F)(F)F)cc(C(F)(F)F)c1	> 100 µM

Same assay, conditions: MDA-MB-435, 48 h, read-out: TGI

SMILES	TGI
O=C(Nc1cccc(-n2cc(-c3ccncc3)c(-c3cc(O)cc(Cl)c3)n2)c1)c1cc(C(F)(F)F)cc(C(F)(F)F)c1	> 100 µM

Same assay, conditions: MDA-MB-435, 48 h, read-out: pGI50 (converted)

SMILES	GI50
O=C(Nc1cccc(-n2cc(-c3ccncc3)c(-c3cc(O)cc(Cl)c3)n2)c1)c1cc(C(F)(F)F)cc(C(F)(F)F)c1	3.16 µM

Same assay, conditions: MDA-MB-435, 48 h, read-out: pLC50 (converted)

SMILES	LC50
O=C(Nc1cccc(-n2cc(-c3ccncc3)c(-c3cc(O)cc(Cl)c3)n2)c1)c1cc(C(F)(F)F)cc(C(F)(F)F)c1	> 100 µM

Same assay, conditions: MDA-MB-435, 48 h, read-out: pTGI (converted)

SMILES	TGI
O=C(Nc1cccc(-n2cc(-c3ccncc3)c(-c3cc(O)cc(Cl)c3)n2)c1)c1cc(C(F)(F)F)cc(C(F)(F)F)c1	> 100 µM

What follows are compounds tested on UO-31 (assay: Growth inhibition of human UO31 cells assessed as cell growth at 1 uM incubated for 48 hrs by sulforhodamine B assay relative to control). Settings: UO-31, 48 h, read-out: Activity.
Assay type: functional

SMILES	growth at 1 µM
O=C(Nc1cccc(-n2cc(-c3ccncc3)c(-c3cc(O)cc(Cl)c3)n2)c1)c1cc(C(F)(F)F)cc(C(F)(F)F)c1	71%

These compounds were tested on SW-620 (assay: Growth inhibition of human SW620 cells assessed as cell growth at 0.1 uM incubated for 48 hrs by sulforhodamine B assay relative to control). Settings: SW-620, 48 h, read-out: Activity.
Assay type: functional

SMILES	growth at 0.1 µM
O=C(Nc1cccc(-n2cc(-c3ccncc3)c(-c3cc(O)cc(Cl)c3)n2)c1)c1cc(C(F)(F)F)cc(C(F)(F)F)c1	98%

These compounds were tested on LOX IMVI (assay: Growth inhibition of human LOXIMVI cells assessed as cell growth at 1 uM incubated for 48 hrs by sulforhodamine B assay relative to control). Settings: read-out: Activity.
Assay type: functional

SMILES	growth at 1 µM
O=C(Nc1cccc(-n2cc(-c3ccncc3)c(-c3cc(O)cc(Cl)c3)n2)c1)c1cc(C(F)(F)F)cc(C(F)(F)F)c1	97%

What follows are compounds tested on K562 (assay: Growth inhibition of human K562 cells assessed as cell growth at 100 uM incubated for 48 hrs by sulforhodamine B assay relative to control). Settings: K562, 48 h, read-out: Activity.
Assay type: functional

SMILES	growth at 100 µM
O=C(Nc1cccc(-n2cc(-c3ccncc3)c(-c3cc(O)cc(Cl)c3)n2)c1)c1cc(C(F)(F)F)cc(C(F)(F)F)c1	7%

These compounds were tested on SK-OV-3 (assay: Growth inhibition of human SKOV3 cells incubated for 48 hrs by sulforhodamine B assay). Settings: SK-OV-3, 48 h, read-out: GI50.
Assay type: functional, cell-based

SMILES	GI50
O=C(Nc1cccc(-n2cc(-c3ccncc3)c(-c3cc(O)cc(Cl)c3)n2)c1)c1cc(C(F)(F)F)cc(C(F)(F)F)c1	1.08 µM

Same assay, conditions: SK-OV-3, 48 h, read-out: LC50 (the source's name)

SMILES	CC50
O=C(Nc1cccc(-n2cc(-c3ccncc3)c(-c3cc(O)cc(Cl)c3)n2)c1)c1cc(C(F)(F)F)cc(C(F)(F)F)c1	> 100 µM

Same assay, conditions: SK-OV-3, 48 h, read-out: TGI

SMILES	TGI
O=C(Nc1cccc(-n2cc(-c3ccncc3)c(-c3cc(O)cc(Cl)c3)n2)c1)c1cc(C(F)(F)F)cc(C(F)(F)F)c1	> 100 µM

Same assay, conditions: SK-OV-3, 48 h, read-out: pGI50 (converted)

SMILES	GI50
O=C(Nc1cccc(-n2cc(-c3ccncc3)c(-c3cc(O)cc(Cl)c3)n2)c1)c1cc(C(F)(F)F)cc(C(F)(F)F)c1	10.7 µM

Same assay, conditions: SK-OV-3, 48 h, read-out: pLC50 (the source's name) (converted)

SMILES	CC50
O=C(Nc1cccc(-n2cc(-c3ccncc3)c(-c3cc(O)cc(Cl)c3)n2)c1)c1cc(C(F)(F)F)cc(C(F)(F)F)c1	> 100 µM

Same assay, conditions: SK-OV-3, 48 h, read-out: pTGI (converted)

SMILES	TGI
O=C(Nc1cccc(-n2cc(-c3ccncc3)c(-c3cc(O)cc(Cl)c3)n2)c1)c1cc(C(F)(F)F)cc(C(F)(F)F)c1	> 100 µM

What follows are compounds tested on RPMI-8226 (assay: Growth inhibition of human RPMI8226 cells assessed as cell growth at 0.01 uM incubated for 48 hrs by sulforhodamine B assay relative to control). Settings: RPMI-8226, 48 h, read-out: Activity.
Assay type: functional

SMILES	growth at 0.01 µM
O=C(Nc1cccc(-n2cc(-c3ccncc3)c(-c3cc(O)cc(Cl)c3)n2)c1)c1cc(C(F)(F)F)cc(C(F)(F)F)c1	105%

The compounds below were run on NCI/ADR-RES (assay: Growth inhibition of human NCI/ADR-RES cells assessed as cell growth at 100 uM incubated for 48 hrs by sulforhodamine B assay relative to control). Settings: read-out: Activity.
Assay type: functional

SMILES	growth at 100 µM
O=C(Nc1cccc(-n2cc(-c3ccncc3)c(-c3cc(O)cc(Cl)c3)n2)c1)c1cc(C(F)(F)F)cc(C(F)(F)F)c1	9%

The compounds below were run on A549 (assay: Growth inhibition of human A549/ATCC cells assessed as cell growth at 1 uM incubated for 48 hrs by sulforhodamine B assay relative to control). Settings: A549, 48 h, read-out: Activity.
Assay type: functional

SMILES	growth at 1 µM
O=C(Nc1cccc(-n2cc(-c3ccncc3)c(-c3cc(O)cc(Cl)c3)n2)c1)c1cc(C(F)(F)F)cc(C(F)(F)F)c1	74%

What follows are compounds tested on A498 (assay: Growth inhibition of human A498 cells assessed as cell growth at 0.1 uM incubated for 48 hrs by sulforhodamine B assay relative to control). Settings: A498, 48 h, read-out: Activity.
Assay type: functional

SMILES	growth at 0.1 µM
O=C(Nc1cccc(-n2cc(-c3ccncc3)c(-c3cc(O)cc(Cl)c3)n2)c1)c1cc(C(F)(F)F)cc(C(F)(F)F)c1	87%

These compounds were tested on A498 (assay: Growth inhibition of human A498 cells assessed as cell growth at 100 uM incubated for 48 hrs by sulforhodamine B assay relative to control). Settings: A498, 48 h, read-out: Activity.
Assay type: functional

SMILES	growth at 100 µM
O=C(Nc1cccc(-n2cc(-c3ccncc3)c(-c3cc(O)cc(Cl)c3)n2)c1)c1cc(C(F)(F)F)cc(C(F)(F)F)c1	-2%

These compounds were tested on NCI/ADR-RES (assay: Growth inhibition of human NCI/ADR-RES cells assessed as cell growth at 0.01 uM incubated for 48 hrs by sulforhodamine B assay relative to control). Settings: read-out: Activity.
Assay type: functional

SMILES	growth at 0.01 µM
O=C(Nc1cccc(-n2cc(-c3ccncc3)c(-c3cc(O)cc(Cl)c3)n2)c1)c1cc(C(F)(F)F)cc(C(F)(F)F)c1	101%

These compounds were tested on SK-MEL-28 (assay: Growth inhibition of human SK-MEL-28 cells assessed as cell growth at 1 uM incubated for 48 hrs by sulforhodamine B assay relative to control). Settings: SK-MEL-28, 48 h, read-out: Activity.
Assay type: functional

SMILES	growth at 1 µM
O=C(Nc1cccc(-n2cc(-c3ccncc3)c(-c3cc(O)cc(Cl)c3)n2)c1)c1cc(C(F)(F)F)cc(C(F)(F)F)c1	55%

These compounds were tested on PC-3 (assay: Growth inhibition of human PC3 cells assessed as cell growth at 1 uM incubated for 48 hrs by sulforhodamine B assay relative to control). Settings: PC-3, 48 h, read-out: Activity.
Assay type: functional

SMILES	growth at 1 µM
O=C(Nc1cccc(-n2cc(-c3ccncc3)c(-c3cc(O)cc(Cl)c3)n2)c1)c1cc(C(F)(F)F)cc(C(F)(F)F)c1	78%

The compounds below were run on SW-620 (assay: Growth inhibition of human SW620 cells assessed as cell growth at 0.01 uM incubated for 48 hrs by sulforhodamine B assay relative to control). Settings: SW-620, 48 h, read-out: Activity.
Assay type: functional

SMILES	growth at 0.01 µM
O=C(Nc1cccc(-n2cc(-c3ccncc3)c(-c3cc(O)cc(Cl)c3)n2)c1)c1cc(C(F)(F)F)cc(C(F)(F)F)c1	99%
